Converted amounts (≈) assume the structure as drawn. A value given as a limit tells only on which side of the number the result lay.

Data set [1] relates to Herpes simplex type 1 virus (HFEM strain). Description: Plaque reduction test in Vero cells infected with Herpes simplex type 1 virus. Type of data set: cell-based. The conditions noted are these: Human alphaherpesvirus 1, 144 h, concentration causing a 50% reduction in the number of virus plaques formed, agarose overlay, 37°C for 6 days, read-out: PDD50 (the source's name). Here is the method:
(§1) Vero (African Green Monkey Kidney) cells were grown to confluence in 6 well multidishes, each well being 3.5 cm in diameter'. The cells were incubated with Herpes simplex type 1 virus (HFEM strain) and overlaid with 0.5 mL of 0.9% agarose (w/v) in maintenance medium containing the test compound at a range of concentrations from […] in half-log dilution steps. The virus infected cultures were then incubated at 37°C for 6 days before fixing in 4% formaldehyde solution and staining with carbolfuchsin. The dishes were then examined to find that concentration of test compound causing a 50% reduction in the number of virus plaques formed (PDD50 value) and the minimum concentration of test compound which killed the cell monolayer, leaving a clear zone devoid of cells and virus plaques (MTD).

Data set [2] can be described thus: Toxicity to the cell monolayer in the plaque reduction test (MTD). Type of data set: cell-based, African Green Monkey. The conditions noted are these: monkey, vero cells; minimum concentration which killed the cell monolayer; virus infected Vero cultures, 37°C for 6 days. Here is the method:
as §1
(Plaque reduction counts the foci of infection that form in a cell layer.)

Regarding `O=c1nc2n(cc1/C=C/Br)[C@H]1C[C@H](O)[C@@H](CO2)O1` [1 (b), 2,5'-Anhydro-E-5-(2-bromovinyl)-2'-deoxyuridine], in data set [1], the IC50 stood at 2.8 µg/mL (≈ 8.89 µM). In data set [2], this compound registered an MCC at 144 h greater than 50 µg/mL.
In the case of `CC(=O)OC1CC2OC1COc1nc(=O)c(C=CBr)cn12` (stereo not shown) [2 (b), 3'-0-Acetyl-2,5'-anhydro-E-5-(2-bromovinyl)-2'-deoxyuridine], the IC50 in data set [1] was 13.5 µg/mL (≈ 37.8 µM). The MCC at 144 h in data set [2] is greater than 100 µg/mL.

Values taken from patent publication EP0060099A1, “Antiviral agents, their preparation and use” (BEECHAM GROUP PLC, priority 1981, dated 1982).
